Experiments:
Assay in all cases: relative viability (nuclei count vs DMSO), 5 days (fraction); higher = more cells survive
A549 = tested on: A549
Summary of the method: (§1)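 Lung cancer cell lines, seeded in 1536-well plates, were treated the following day by pin tool with a single drug or with five library-drug doses (not always all listed) in √10 steps on top of a fixed anchor-drug dose. Cells were fixed and nuclei stained in one step after 5 days, and nuclei were counted. Relative viability is the nuclei count for treated wells divided by that for vehicle wells, reported as medians of duplicate plates.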

NCI-H1623 = tested on: NCI-H1623
Summary of the method: as §1

NCI-H661 = tested on: NCI-H661
Summary of the method: as §1

EMC-BAC-2 = tested on: EMC-BAC-2
Summary of the method: as §1

NCI-H1437 = tested on: NCI-H1437
Summary of the method: as §1

HCC-78 = tested on: HCC-78
Summary of the method: as §1

ABC-1 = tested on: ABC-1
Summary of the method: as §1

NCI-H1395 = tested on: NCI-H1395
Summary of the method: as §1

NCI-H23 = tested on: NCI-H23
Summary of the method: as §1

NCI-H1648 = tested on: NCI-H1648
Summary of the method: as §1

NCI-H1703 = tested on: NCI-H1703
Summary of the method: as §1

With `COCC1(CO)C(=O)C2CCN1CC2` (stereo not drawn) [PRIMA-1MET] + N=C(N)NC(=N)NCCc1ccccc1 [Phenformin] (partner 250 µM) the relative viability (A549; first compound 0.2 µM) was 0.165, the relative viability (A549; first compound 0.6325 µM) was 0.173 and the relative viability (A549; first compound 2 µM) was 0.204. It also gave a relative viability (A549; first compound 6.325 µM) of 0.148, a relative viability (A549; first compound 20 µM) of 0.0121 and a relative viability (NCI-H1623; first compound 0.2 µM) of 0.522. The relative viability (NCI-H1623; first compound 0.6325 µM) was 0.603, the relative viability (NCI-H1623; first compound 2 µM) was 0.544 and the relative viability (NCI-H1623; first compound 6.325 µM) was 0.503. For the same compound, the relative viability (NCI-H1623; first compound 20 µM) was 0.457, the relative viability (NCI-H661; first compound 0.2 µM) was 0.304 and the relative viability (NCI-H661; first compound 0.6325 µM) was 0.261. The relative viability (NCI-H661; first compound 2 µM) was 0.274, the relative viability (NCI-H661; first compound 6.325 µM) was 0.288 and the relative viability (NCI-H661; first compound 20 µM) was 0.292. It also gave a relative viability (EMC-BAC-2; first compound 0.2 µM) of 0.642, a relative viability (EMC-BAC-2; first compound 0.6325 µM) of 0.564 and a relative viability (EMC-BAC-2; first compound 6.325 µM) of 0.609. For the same compound, the relative viability (EMC-BAC-2; first compound 20 µM) was 0.352, the relative viability (NCI-H1437; first compound 0.2 µM) was 0.322 and the relative viability (NCI-H1437; first compound 0.6325 µM) was 0.331. It also gave a relative viability (NCI-H1437; first compound 2 µM) of 0.259, a relative viability (NCI-H1437; first compound 6.325 µM) of 0.298 and a relative viability (NCI-H1437; first compound 20 µM) of 0.294. It also gave a relative viability (HCC-78; first compound 0.2 µM) of 0.7, a relative viability (HCC-78; first compound 0.6325 µM) of 0.648 and a relative viability (HCC-78; first compound 6.325 µM) of 0.658. The relative viability (HCC-78; first compound 20 µM) was 0.599, the relative viability (ABC-1; first compound 0.2 µM) was 0.233 and the relative viability (ABC-1; first compound 0.6325 µM) was 0.2. For the same compound, the relative viability (ABC-1; first compound 2 µM) was 0.23, the relative viability (ABC-1; first compound 6.325 µM) was 0.231 and the relative viability (ABC-1; first compound 20 µM) was 0.199. For the same compound, the relative viability (NCI-H1395; first compound 0.2 µM) was 0.469, the relative viability (NCI-H1395; first compound 0.6325 µM) was 0.414 and the relative viability (NCI-H1395; first compound 2 µM) was 0.416. For the same compound, the relative viability (NCI-H1395; first compound 6.325 µM) was 0.441, the relative viability (NCI-H1395; first compound 20 µM) was 0.395 and the relative viability (NCI-H23; first compound 0.2 µM) was 0.854. It also gave a relative viability (NCI-H23; first compound 0.6325 µM) of 0.772, a relative viability (NCI-H23; first compound 2 µM) of 0.822 and a relative viability (NCI-H23; first compound 6.325 µM) of 0.842. It also gave a relative viability (NCI-H23; first compound 20 µM) of 0.561.
`COCC1(CO)C(=O)C2CCN1CC2` (stereo not drawn) [PRIMA-1MET] + NC(=O)Nc1cc(-c2cccc(F)c2)sc1C(=O)N[C@H]1CCCNC1 [AZD7762] (partner 0.2 µM) gave a relative viability (NCI-H1648; first compound 0.2 µM) of 0.729, a relative viability (NCI-H1648; first compound 2 µM) of 0.655 and a relative viability (NCI-H1648; first compound 20 µM) of 0.663. It also gave a relative viability (EMC-BAC-2; first compound 0.2 µM) of 1.34, a relative viability (EMC-BAC-2; first compound 0.6325 µM) of 1.07 and a relative viability (EMC-BAC-2; first compound 2 µM) of 0.989. For the same compound, the relative viability (EMC-BAC-2; first compound 6.325 µM) was 1.12, the relative viability (EMC-BAC-2; first compound 20 µM) was 1.01 and the relative viability (NCI-H1437; first compound 0.2 µM) was 1.16. It also gave a relative viability (NCI-H1437; first compound 0.6325 µM) of 1.09, a relative viability (NCI-H1437; first compound 2 µM) of 1.03 and a relative viability (NCI-H1437; first compound 6.325 µM) of 1.12. For the same compound, the relative viability (NCI-H1437; first compound 20 µM) was 1.05, the relative viability (NCI-H1703; first compound 0.6325 µM) was 0.158 and the relative viability (NCI-H1703; first compound 6.325 µM) was 0.121. For the same compound, the relative viability (NCI-H1703; first compound 20 µM) was 0.0239, the relative viability (HCC-78; first compound 0.2 µM) was 0.893 and the relative viability (HCC-78; first compound 0.6325 µM) was 0.62. It also gave a relative viability (HCC-78; first compound 2 µM) of 0.555, a relative viability (HCC-78; first compound 6.325 µM) of 0.69 and a relative viability (HCC-78; first compound 20 µM) of 0.174. The relative viability (ABC-1; first compound 0.2 µM) was 0.97, the relative viability (ABC-1; first compound 0.6325 µM) was 0.624 and the relative viability (ABC-1; first compound 2 µM) was 0.952. It also gave a relative viability (ABC-1; first compound 6.325 µM) of 0.775, a relative viability (ABC-1; first compound 20 µM) of 0.376 and a relative viability (NCI-H1395; first compound 0.2 µM) of 0.376. It also gave a relative viability (NCI-H1395; first compound 2 µM) of 0.385, a relative viability (NCI-H1395; first compound 6.325 µM) of 0.38 and a relative viability (NCI-H1395; first compound 20 µM) of 0.129. It also gave a relative viability (NCI-H23; first compound 0.2 µM) of 0.212, a relative viability (NCI-H23; first compound 0.6325 µM) of 0.225 and a relative viability (NCI-H23; first compound 2 µM) of 0.231. It also gave a relative viability (NCI-H23; first compound 6.325 µM) of 0.209 and a relative viability (NCI-H23; first compound 20 µM) of 0.102.
With `COCC1(CO)C(=O)C2CCN1CC2` (stereo not drawn) [PRIMA-1MET] + Nc1ncn([C@H]2C[C@H](O)[C@@H](CO)O2)c(=O)n1 [Decitabine] (partner 2 µM) the relative viability (A549; first compound 0.2 µM) was 0.284, the relative viability (A549; first compound 2 µM) was 0.253 and the relative viability (A549; first compound 6.325 µM) was 0.25. For the same compound, the relative viability (A549; first compound 20 µM) was 0.237, the relative viability (NCI-H1648; first compound 0.2 µM) was 0.433 and the relative viability (NCI-H1648; first compound 2 µM) was 0.451. It also gave a relative viability (NCI-H1648; first compound 20 µM) of 0.475, a relative viability (NCI-H661; first compound 0.2 µM) of 0.549 and a relative viability (NCI-H661; first compound 0.6325 µM) of 0.459. The relative viability (NCI-H661; first compound 2 µM) was 0.517, the relative viability (NCI-H661; first compound 6.325 µM) was 0.567 and the relative viability (NCI-H661; first compound 20 µM) was 0.497. The relative viability (EMC-BAC-2; first compound 0.2 µM) was 1, the relative viability (EMC-BAC-2; first compound 0.6325 µM) was 0.818 and the relative viability (EMC-BAC-2; first compound 2 µM) was 0.967. The relative viability (EMC-BAC-2; first compound 6.325 µM) was 0.938, the relative viability (EMC-BAC-2; first compound 20 µM) was 0.928 and the relative viability (NCI-H1437; first compound 0.2 µM) was 0.607. For the same compound, the relative viability (NCI-H1437; first compound 0.6325 µM) was 0.37, the relative viability (NCI-H1437; first compound 2 µM) was 0.599 and the relative viability (NCI-H1437; first compound 6.325 µM) was 0.59. The relative viability (NCI-H1437; first compound 20 µM) was 0.552, the relative viability (HCC-78; first compound 0.2 µM) was 0.643 and the relative viability (HCC-78; first compound 0.6325 µM) was 0.598. For the same compound, the relative viability (HCC-78; first compound 2 µM) was 0.553, the relative viability (HCC-78; first compound 6.325 µM) was 0.697 and the relative viability (HCC-78; first compound 20 µM) was 0.377. For the same compound, the relative viability (ABC-1; first compound 0.2 µM) was 1.07, the relative viability (ABC-1; first compound 2 µM) was 0.983 and the relative viability (ABC-1; first compound 6.325 µM) was 1.36. It also gave a relative viability (ABC-1; first compound 20 µM) of 0.552, a relative viability (NCI-H1395; first compound 0.2 µM) of 0.712 and a relative viability (NCI-H1395; first compound 2 µM) of 0.708. It also gave a relative viability (NCI-H1395; first compound 6.325 µM) of 0.838, a relative viability (NCI-H1395; first compound 20 µM) of 0.67 and a relative viability (NCI-H23; first compound 0.2 µM) of 0.277. For the same compound, the relative viability (NCI-H23; first compound 0.6325 µM) was 0.221, the relative viability (NCI-H23; first compound 2 µM) was 0.282 and the relative viability (NCI-H23; first compound 6.325 µM) was 0.293. For the same compound, the relative viability (NCI-H23; first compound 20 µM) was 0.162.
